The results in this text go back to ChEMBL document CHEMBL3994617, “2,8-bis(trifluoromethyl)quinoline analogs show improved anti-Zika virus activity, compared to mefloquine” (Eur J Med Chem, 2017).

Where only a bound is given, the exact number is not on record here.

Data set [1] concerns Zika virus. As to the kind of experiment: Antiviral activity against Zika virus infected in African green monkey Vero cells assessed as inhibition of viral RNA replication at 10 uM after 24 hrs by RT-PCR method relative to control. It counts as functional.
Data set [2] is described as follows: Cytotoxicity against African green monkey Vero cells assessed as reduction in cell viability after 72 hrs by XTT assay. Conditions: chlorocebus sabaeus. It counts as cell-based. In general terms: Tetrazolium assays rely on reduction of a dye to a coloured formazan, in cell work by metabolically active cells.
The test system of data set [3] is Zika virus. As to the kind of experiment: Antiviral activity against Zika virus infected in African green monkey Vero cells assessed as inhibition of viral RNA replication after 24 hrs by RT-PCR method. It counts as functional.
For data set [4], the system named is Zika virus. As to the kind of experiment: Potency index, ratio of mefloquine EC50 to test compound EC50 for Zika virus infected in African green monkey Vero cells. It counts as functional.
Data set [5] is described as follows: Selectivity index, ratio of CC50 for African green monkey Vero cells to EC50 for Zika virus infected in African green monkey Vero cells. It counts as toxicity. To be noted: read-out: Ratio CC50/EC50.
Data set [6] concerns Zika virus. As to the kind of experiment: Potency index, ratio of chloroquine EC50 to test compound EC50 for Zika virus infected in African green monkey Vero cells. It counts as functional.
Another data set concerns Vero. As to the kind of experiment: Cytotoxicity against African green monkey Vero cells assessed as reduction in cell viability at 10 uM after 72 hrs by XTT assay relative to control. To be noted: chlorocebus sabaeus. It counts as cell-based.

As a reminder, the inhibition is the drop in the measured response relative to a control, in per cent. For `CCCCNc1cc(C(F)(F)F)nc2c(C(F)(F)F)cccc12`, the inhibition at 10 µM in the data set on Zika virus [1] worked out at 58.8%.

The term CC50 denotes the concentration that lowers cell viability or growth by half. The EC50 is the concentration at which the effect is half-maximal. For `OCCNc1cc(C(F)(F)F)nc2c(C(F)(F)F)cccc12`, the CC50 at 72 h in data set [2] is 189 µM. Further, the EC50 in the data set on Zika virus [3] was 0.8 µM. In addition, the “Ratio EC50” value in the data set on Zika virus [4] came out at 5. Further, the inhibition at 10 µM in the data set with Zika virus [1] turned out to be 74.4%. Further, the selectivity ratio in data set [5] worked out at 236.

As for `NCCNc1cc(C(F)(F)F)nc2c(C(F)(F)F)cccc12`, in data set [2], the cytotoxic concentration (CC50) at 72 h is 195 µM. Also, in the data set with Zika virus [3], the EC50 came out at 0.8 µM. Also, the “Ratio EC50” value in the data set on Zika virus [4] is listed as 5. The inhibition at 10 µM in the data set with Zika virus [1] worked out at 78.6%. Besides, in data set [5], the selectivity ratio was 243.

Turning to `COc1cc(C(F)(F)F)nc2c(C(F)(F)F)cccc12`, in the data set on Zika virus [1], the inhibition at 10 µM was determined as 12%.

For `O[C@@H](c1cc(C(F)(F)F)nc2c(C(F)(F)F)cccc12)[C@H]1CCCCN1` [(S,R)-MEFLOQUINE], the CC50 at 72 h in data set [2] came out at 212 µM. Further, in the data set on Zika virus [3], the EC50 is 3.6 µM. In addition, the inhibition at 10 µM in the data set on Zika virus [1] stood at 78.8%. Moreover, the selectivity ratio in data set [5] amounted to 58. In addition, in the data set on Zika virus [6], the “Ratio EC50” value came to 3.

On to `CCN(CC)CCCC(C)Nc1ccnc2cc(Cl)ccc12` (stereo not given) [CHLOROQUINE], for which the CC50 at 72 h in data set [2] turned out to be 412 µM. In the data set with Zika virus [3], the EC50 came out at 12 µM.

For `NCCCNc1cc(C(F)(F)F)nc2c(C(F)(F)F)cccc12`, the CC50 at 72 h in data set [2] is 287 µM. Besides, in the data set with Zika virus [3], the EC50 was 2 µM. Also, the “Ratio EC50” value with Zika virus [4] is listed as 2. The inhibition at 10 µM in the data set on Zika virus [1] stood at 79.9%. In addition, the selectivity ratio in data set [5] worked out at 143.

Regarding `NCCCCCCCCCCNc1cc(C(F)(F)F)nc2c(C(F)(F)F)cccc12`, the Activity in the data set with Vero is listed as more than 80%.

Consider `FC(F)(F)c1cc(NCCCl)c2cccc(C(F)(F)F)c2n1`, for which the CC50 at 72 h in data set [2] was 316 µM. In addition, in the data set with Zika virus [3], the EC50 came to 1.4 µM. The “Ratio EC50” value in the data set with Zika virus [4] stood at 3. Moreover, the inhibition at 10 µM with Zika virus [1] is 86.9%. Further, in data set [5], the selectivity ratio was determined as 225.
